Laboratory results taken from patent US8741911B2, “Raf inhibitor compounds” (Eli Lilly and Company, priority 2012, dated 2014).

Assays:
[1] = tested on: A375; test: CellTiter-Glo proliferation and viability assay; format: cell-based; details: Homo sapiens, A-375, parental A375 B-Raf V600E cells, comparison with A375res
[2] = tested on: A375res cells; test: CellTiter-Glo proliferation and viability assay in vemurafenib-resistant cells; format: cell-based, human

shift of IC50, A375res versus A375 [2]: ~30 fold
IC50 ([2]; Homo sapiens, A375res cells): > 7 µM
Compound: CCCS(=O)(=O)Nc1ccc(F)c(C(=O)c2c[nH]c3ncc(-c4ccc(Cl)cc4)cc23)c1F [PLX4032, vemurafenib]
IC50 [1]: 0.252 µM
